Data reported in patent publication US9125881B2, “Monoglyceride of acetoacetate and derivatives for the treatment of neurological disorders” (Accera, Inc., priority 2008, dated 2015).
“Also recorded” adds a separate entry of the source.

Columns and labels:
[1] = system: MPTP lesioned mice; test: Neuroprotective effects in MPTP lesioned mice (mouse model of Parkinson's disease); type: in vivo; settings: for TH+ neuron density in substantia nigra (mean): 8 day ip MPTP, histology on treatment day 11
Experimental: To test the possible therapeutic potential of AC-0523 a small pilot experiment was performed examining the potential neuroprotective effects of AC-0523 in a mouse model of Parkinson's disease (PD). 1-methyl-4-phenyl-1,2,3,6-tetrahydropyridine (MPTP), blocks complex I (NADH-ubiquinone oxidoreductase) of the mitochondrial electron transport chain, and causes typical symptoms of (PD) and the loss of dopaminergic neurons.
Systemic injection of MPTP, upon conversion to MPP+, produces a loss of nigrostriatal dopamine (DA) nerve terminals and eventual death of […] dopaminergic neurons. This neuropathology mimics conditions in the dopamine denervated striatum of human PD patients, and produces […] and postural instability. Assays for tyrosine hydroxylase (TH), the enzyme responsible for catalyzing the production of dopamine, and quantification of TH-containing cells in the SNc are performed to measure the extent of […] dopaminergic neurodegeneration.
A parallel group design was used. After acclimation in the facility, subjects were tested on the Rotarod and activity tasks. On the second day of test treatment, all subjects began an 8 day ip administration of MPTP or saline. Fifteen minutes before MPTP or saline treatment and 2.75 hours after, subjects received either the test compound or saline. On the first and ninth treatment day blood draws were taken for subsequent monitoring of β-hydroxybutyrate. On treatment day 11 all subjects were euthanized and histology was preformed on a small number of test animals.

[2] = Mouse pharmacokinetic (PK) study: blood ketone bodies after po and ip dosing; type: in vivo; settings: ICR male mice, single po dose (2.5, 5, 10 ml/kg) or single ip dose (1 g/kg); plasma; as early as 15 minutes
Experimental: The inventor examined the blood levels of ketone bodies after oral (po) and intraperitoneal (ip) dosing of monoacetoacetin at different time points in the mouse.
ICR male mice 6 to 7 weeks old were used. Each mouse weighed between 20-30 grams. Animals were housed 3 per cage and were acclimated for at least 3 days prior to dosing. Mice were given either a single po dose (ranging from 2.5, 5 and 10 ml/kg) of compound, or a single ip dose (1 g/kg). Animals were anesthetized for blood collection at the times 15, 30, 60 and 180 minutes. Whole blood (˜0.4 mls) was collected via cardiac puncture and collected into sodium heparin anticoagulant (Na Heparin, 1:9 ratio). Blood was centrifuged for 8 minutes at 13,000 rpm to isolate plasma. The plasma was transferred into pre-labeled, color-coded eppendorf tubes and frozen at −70° C. […] Plasma levels of beta-hydroxybutyrate (BHB) were determined using a beta-hydroxybutyrate detection kit following manufacturer's directions (StanBio Inc.).

[3] = MPTP-treated mice, listed as AC-0523

CC(=O)CC(=O)OCC(O)CO (stereo not drawn) [Monoacetoacetin, 2,3-dihydroxypropyl 3-oxobutanoate]
TH-positive cell counts in the SNc versus MPTP-treated mice who received only saline or AC-1202 [1]: higher | density of TH in the caudate-putamen ([1]; MPTP-treated mice): highest | TH+ neuron density in substantia nigra (mean) ([1]; MPTP-treated mice, listed as AC0523): 111.000 | TH+ neuron density in substantia nigra (mean) [1, 3]: 111±20 | protection of tyrosine hydroxylase (TH) expressing cells from MPTP toxicity / neuroprotection [1, 3]: protected tyrosine hydroxylase (TH) expressing cells from MPTP toxicity; also recorded: neuroprotective | circulating BHB levels [2]: significant increases
